Experimental data taken from patent US20060084789A1, “Immunotherapeutic and immunoprphylactic reagents” (priority 2002, published 2006).

Test system: RGP-specific TCL
Assay: TCL proliferation assay (3H-thymidine incorporation, stimulation index)
Assay type: cell-based, human
Settings: for Proliferative response, stimulation index: peptides 10 μg/ml; for Lol p 1 peptides recognised by one or more TCL: 34 TCL tested, all recognised with the exception of the four named; for T cell responses to Lol p 5 peptides: 21 TCL tested
Experimental: Generation of Short-Term RGP-Specific TCL
PBMC were cultured in 24-well plates (Costar, Mass., USA) at 2.5×10^6 cells/well with RGP extract at a concentration of 25 or 50 μg/ml in RPMI 1640 medium (Gibco BRL, NY, USA) supplemented with 2 mM GlutaMAX I (Gibco BRL), 0.05 mg/ml gentamicin (David Bull Laboratories, Mulgrave, Victoria, Australia) and 5% heat-inactivated hunan AB^+ serum (Sigma, Mo., USA) for 7 days at 37° C. in a 5% CO2 humidified incubator. At day 7, cells were washed once and restimulated in 24-well plates at 5×10^5 cells/well width 25 or 50 μg/ml of RGP extract in the presence of 5×10^5 cells/well irradiated (3000 rads) autologous PBMC as a source of antigen presenting cells (APC). At day 2 following restimulation, 10 U/ml of Lymphocult T-LF (LC; Biotest, Germany) was added as a source of IL-2 and at day 4, 1 ml of culture medium was removed and replaced with fresh medium and 10 U/ml of LC. […] In all experiments T cells were rested for 6 to 7 days after the last addition of antigen and APC before testing.
T cells (5×10^4/well) were cultured in 96-well U bottom plates with either RGP extract at concentrations ranging from 25 to 200 μg/ml, purified Lol p 1 (0.12 to 2 μg/ml) or Lol p 5 (0.1 to 10 μg/ml), or Lol p 1 or Lol p 5 peptides (10 μg/ml), or medium alone (to determine background levels of proliferation), in the presence of washed autologous irradiated (3000 rads) PBMC (5×10^4/well). […] Cultures were incubated for 3 days, pulsed for the last 16 hours with ^3H-thymidine (1 μCi/well) and harvested onto glass fibre filters. ^3H-thymidine incorporation was measured by liquid scintillation spectroscopy and the mean counts per minute (cpm) for triplicate cultures was determined. Responses were considered positive if the stimulation index (SI, cpm of antigen-stimulated T cells divided by cpm of unstimulated T cells) was ≧2.5. Where several concentrations of allergen were tested (i.e., RGP, Lol p 1 and Lol p 5), values corresponding to the highest proliferation are shown.

[1] = Subject 4 TCL, Lol p 5 series (Table 4), RGP and Lol p 5 maximal response
[2] = Subject 7 TCL, Lol p 5 series (Table 4), RGP and Lol p 5 maximal response
[3] = Subject 2 TCL, Lol p 1 series (Table 3), RGP and Lol p 1 maximal response
[4] = Subject 4 TCL, Lol p 1 series (Table 3), RGP and Lol p 1 maximal response
[5] = Subject 11 TCL, Lol p 1 series (Table 3), RGP and Lol p 1 maximal response
[6] = Subject 12 TCL, Lol p 5 series (Table 4), RGP and Lol p 5 maximal response
[7] = Subject 20 TCL, Lol p 5 series (Table 4), RGP and Lol p 5 maximal response
[8] = Subject 12 TCL, Lol p 1 series (Table 3), RGP and Lol p 1 maximal response
[9] = Subject 3 TCL, Lol p 1 series (Table 3), RGP and Lol p 1 maximal response
[10] = Subject 11 TCL, Lol p 5 series (Table 4), RGP and Lol p 5 maximal response
[11] = Subject 35 TCL, Lol p 5 series (Table 4), RGP and Lol p 5 maximal response
[12] = Subject 36 TCL, Lol p 5 series (Table 4), RGP and Lol p 5 maximal response
[13] = Subject 37 TCL, Lol p 5 series (Table 4), RGP and Lol p 5 maximal response

## AFSESSKGLLATSAAKAPGL (Lolium perenne) [Lol p 5 peptide 64-83]
[1]
  Proliferative response, stimulation index: 2.8
[2]
  Proliferative response, stimulation index: 2.8

## AGELELQFRRVKCKYPDDTK (Lolium perenne) [Lol p 1 peptide 127-146]
[3]
  Proliferative response, stimulation index: 5.8
Subject 13 TCL, Lol p 1 series (Table 3), RGP and Lol p 1 maximal response
  Proliferative response, stimulation index: 3.7
Subject 17 TCL, Lol p 1 series (Table 3), RGP and Lol p 1 maximal response
  Proliferative response, stimulation index: 3.0

## FEIKCTKPESCSGEAVTVTI (Lolium perenne) [Lol p 1 peptide 73-92]
Subject 1 TCL, Lol p 1 series (Table 3), RGP and Lol p 1 maximal response
  Proliferative response, stimulation index: 3.9
[4]
  Proliferative response, stimulation index: 2.9
[5]
  Proliferative response, stimulation index: 2.6

## KFTVFESAFNKALNECTGGA (Lolium perenne) [Lol p 5 peptide 172-191]
[1]
  Proliferative response, stimulation index: 2.7
[6]
  Proliferative response, stimulation index: 2.5
[7]
  Proliferative response, stimulation index: 3.0

## Lol p 1 peptide 46-65: synthetic 20-mer, amino acids 46-65 of Lol p 1A (SEQ ID NO:1) (VDKAPFNGMTGCGNTPIFKD; Lolium perenne)
Subject 5 TCL, Lol p 1 series (Table 3), RGP and Lol p 1 maximal response
  Proliferative response, stimulation index: 8.4
[8]
  Proliferative response, stimulation index: 4.0

## Lol p 1 peptide 55-74: synthetic 20-mer, amino acids 55-74 of Lol p 1A (SEQ ID NO:1) (TGCGNTPIFKDGRGCGSCFE; Lolium perenne)
  Lol p 1 peptides recognised by one or more TCL: exception

## Lol p 1 peptide 82-101: synthetic 20-mer, amino acids 82-101 of Lol p 1A (SEQ ID NO:1) (SCSGEAVTVTITDDNEEPIA; Lolium perenne)
[9]
  Proliferative response, stimulation index: 3.6
[5]
  Proliferative response, stimulation index: 3.6

## Lol p 1 peptide 91-110: synthetic 20-mer, amino acids 91-110 of Lol p 1A (SEQ ID NO:1)
[4]
  Proliferative response, stimulation index: 3.6
[5]
  Proliferative response, stimulation index: 4.9

## Lol p 1 peptide 118-137: synthetic 20-mer, amino acids 118-137 of Lol p 1A (SEQ ID NO:1) (KGEEQKLRASAGELELQFRR; Lolium perenne)
[3]
  Proliferative response, stimulation index: 6.2
[8]
  Proliferative response, stimulation index: 2.5

## Lol p 1 peptide 145-164: synthetic 20-mer, amino acids 145-164 of Lol p 1A (SEQ ID NO:1) (GTKPTFHVEKASNPNYLAIL; Lolium perenne)
[8]
  Proliferative response, stimulation index: 4.5

## Lol p 1 peptide 163-182: synthetic 20-mer, amino acids 163-182 of Lol p 1A (SEQ ID NO:1) (ILVKYVDGDGDVVAVDIKEK; Lolium perenne)
  Lol p 1 peptides recognised by one or more TCL: exception
Subject 23 TCL, Lol p 1 series (Table 3), RGP and Lol p 1 maximal response
  Proliferative response, stimulation index: 4.2

## Lol p 1 peptide 172-191: synthetic 20-mer, amino acids 172-191 of Lol p 1A (SEQ ID NO:1) (GDVVAVDIKEKGKDKWIELK; Lolium perenne)
Subject 9 TCL, Lol p 1 series (Table 3), RGP and Lol p 1 maximal response
  Proliferative response, stimulation index: 2.5

## Lol p 1 peptide 199-218: synthetic 20-mer, amino acids 199-218 of Lol p 1A (SEQ ID NO:1) (RIDTPDKLTGPFTVRYTTEG; Lolium perenne)
  Lol p 1 peptides recognised by one or more TCL: exception

## Lol p 1 peptide 208-227: synthetic 20-mer, amino acids 208-227 of Lol p 1A (SEQ ID NO:1) (GPFTVRYTTEGGTKSEVEDV; Lolium perenne)
  Lol p 1 peptides recognised by one or more TCL: exception
[9]
  Proliferative response, stimulation index: 4.4

## Lol p 1 peptide 217-236: synthetic 20-mer, amino acids 217-236 of Lol p 1A (SEQ ID NO:1) (EGGTKSEVEDVIPEGWKADT; Lolium perenne)
[9]
  Proliferative response, stimulation index: 3.3
[5]
  Proliferative response, stimulation index: 4.4

## Lol p 1 peptide 221-240: synthetic 20-mer, amino acids 221-240 of Lol p 1A (SEQ ID NO:1) (KSEVEDVIPEGWKADTSYSA; Lolium perenne)
[5]
  Proliferative response, stimulation index: 3.3

## Lol p 5 peptide 73-92: synthetic 20-mer, amino acids 73-92 of Lol p 5A (SEQ ID NO:2) (LATSAAKAPGLIPKLDTAYD; Lolium perenne)
[2]
  Proliferative response, stimulation index: 2.6

## Lol p 5 peptide 82-101: synthetic 20-mer, amino acids 82-101 of Lol p 5A (SEQ ID NO:2) (GLIPKLDTAYDVAYKAAEGA; Lolium perenne)
  T cell responses to Lol p 5 peptides: nor were T cell responses detected

## Lol p 5 peptide 91-110: synthetic 20-mer, amino acids 91-110 of Lol p 5A (SEQ ID NO:2) (YDVAYKAAEGATPEAKYDAF; Lolium perenne)
  T cell responses to Lol p 5 peptides: nor were T cell responses detected

## Lol p 5 peptide 100-119: synthetic 20-mer, amino acids 100-119 of Lol p 5A (SEQ ID NO:2) (GATPEAKYDAFVTALTEALR; Lolium perenne)
[1]
  Proliferative response, stimulation index: 3.8
[10]
  Proliferative response, stimulation index: 10.0
[6]
  Proliferative response, stimulation index: 7.5
[11]
  Proliferative response, stimulation index: 2.5

## Lol p 5 peptide 109-128: synthetic 20-mer, amino acids 109-128 of Lol p 5A (SEQ ID NO:2) (AFVTALTEALRVIAGALEVH; Lolium perenne)
  T cell responses to Lol p 5 peptides: nor were T cell responses detected

## Lol p 5 peptide 127-146: synthetic 20-mer, amino acids 127-146 of Lol p 5A (SEQ ID NO:2) (VHAVKPATEEVPAAKIPTGE; Lolium perenne)
  T cell responses to Lol p 5 peptides: nor were T cell responses detected

## Lol p 5 peptide 136-155: synthetic 20-mer, amino acids 136-155 of Lol p 5A (SEQ ID NO:2) (EVPAAKIPTGELQIVDKIDA; Lolium perenne)
  T cell responses to Lol p 5 peptides: nor were T cell responses detected

## Lol p 5 peptide 163-182: synthetic 20-mer, amino acids 163-182 of Lol p 5A (SEQ ID NO:2) (AANAAPTNDKFTVFESAFNK; Lolium perenne)
[7]
  Proliferative response, stimulation index: 2.5

## Lol p 5 peptide 181-200: synthetic 20-mer, amino acids 181-200 of Lol p 5A (SEQ ID NO:2) (NKALNECTGGAYETYKFIPS; Lolium perenne)
[7]
  Proliferative response, stimulation index: 3.4

## PEVKYAVFEAALTKAITAMT (Lolium perenne) [Lol p 5 peptide 217-236]
[10]
  Proliferative response, stimulation index: 5.4
[7]
  Proliferative response, stimulation index: 4.5
Subject 27 TCL, Lol p 5 series (Table 4), RGP and Lol p 5 maximal response, † affinity purified Lol p 5
  Proliferative response, stimulation index: 9.5
[11]
  Proliferative response, stimulation index: 3.5
[12]
  Proliferative response, stimulation index: 3.5
[13]
  Proliferative response, stimulation index: 11.0

## VAAAANAPPADKFKIFEAAF (Lolium perenne) [Lol p 5 peptide 46-65]
[6]
  Proliferative response, stimulation index: 6.5
[12]
  Proliferative response, stimulation index: 2.7
[13]
  Proliferative response, stimulation index: 6.6
